Patent US10278942B2 (PELOTON THERAPEUTICS, INC., priority 2015, dated 2019)
Read-outs that look alike come from different tables or passages of the source.

Assays:
786-O-Hif-Luc cells = test: Luciferase Assay (HIF responsive elements reporter)
Description: A pool of infected cells were then selected against 2 μg/mL of puromycin (P8833, Sigma) for 10 days followed by limited dilution to select single clones. […] Each concentration was tested in triplicate. After about 24 hours, luciferase activity was determined using ONE-Glo Luciferase Assay Reagent (E6110, Promega) following the manufacturer's recommended procedure. EC50 were calculated using Dotmatics software.

[1] = target: T1, HIF-2α HIS TAG-PASB Domain (Homo sapiens, UniProt Q99814); test: HIF-2α Scintillation Proximity Assay (SPA); format: binding
T1 construct: 100 nM HIF-2α HIS TAG-PASB Domain
Method in brief: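 IC50 values rest on percent inhibition, where the sample signal is scaled between high and low controls. Wells contain about 100 μL: compound dispensed as 2 μL of DMSO solution, 88 μL protein-probe mix and 10 μL of beads.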

[2] = read-out: Mean Luciferase EC50 (nM)
[3] = read-out: Mean Luciferase EC50 (nM), 786-O-Hif-Luc cells
[4] = Scintillation Proximity Assay IC50 (nM)
[5] = read-out: Scintillation Proximity Assay IC50

T1 sequence (Q99814 240-350 limits assumed): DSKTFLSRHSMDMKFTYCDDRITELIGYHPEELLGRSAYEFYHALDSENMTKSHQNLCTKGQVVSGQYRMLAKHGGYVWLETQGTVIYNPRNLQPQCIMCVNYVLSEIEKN

Row | IC50 [1, 5] | Structure (SMILES) | further results
1 |  | CS(=O)(=O)c1ccc(Oc2cc(F)cc(C#N)c2)c2c1[C@H](O)[C@H](F)C2 [Compound 231] | EC50 (786-O-Hif-Luc cells; [2]): < 50 nM
2 |  | CC1(C#N)CC(Oc2ccc(S(C)(=O)=O)c3c2[C@@H](F)C(F)(F)[C@H]3O)C1 (some centres unmarked) [Compound 766] | EC50 (786-O-Hif-Luc cells; [3]): 250 to 1000 nM
3 |  | O=S(=O)(c1ccc(Oc2ccc(F)c3[nH]ncc23)c2c1[C@H](O)C(F)(F)C2)C(F)(F)F [Compound 266] | EC50 (786-O-Hif-Luc cells; [3]): < 50 nM
4 |  | N#Cc1cc(Cl)cc(Oc2ccc(S(=O)(=O)CF)c3c2CC(F)(F)[C@H]3O)c1 [Compound 167] | EC50 (786-O-Hif-Luc cells; [2]): < 50 nM
5 |  | CS(=O)(=O)c1ccc(Oc2cc(F)cc(C#N)c2)c2c1C(O)C(F)C2 (centres unmarked) [Compound 232] | EC50 (786-O-Hif-Luc cells; [2]): < 50 nM
6 |  | CNS(=O)(=O)c1ccc(Oc2cc(F)cc(F)c2)c2c1[C@H](O)C(F)(F)C2 [Compound 251] | EC50 (786-O-Hif-Luc cells; [2]): 50 to 249 nM
7 |  | O=S(=O)(c1ccc(Oc2cncc(Cl)c2)c2c1[C@H](O)C(F)(F)C2)C(F)F [Compound 25] | EC50 (786-O-Hif-Luc cells; [3]): < 50 nM
8 |  | NS(=O)(=O)c1ccc(Oc2cc(F)cc(F)c2)c2c1[C@H](O)C(F)(F)C2 [Compound 256] | EC50 (786-O-Hif-Luc cells; [2]): < 50 nM
9 |  | Cn1cc(Oc2ccc(S(=O)(=O)C(F)(F)F)c3c2CC(F)(F)[C@H]3O)cn1 [Compound 224] | EC50 (786-O-Hif-Luc cells; [3]): 50 to 249 nM
10 |  | O=S(=O)(CF)c1ccc(Oc2cc(F)cc(Cl)c2)c2c1[C@H](O)CC2 [Compound 61] | EC50 (786-O-Hif-Luc cells; [3]): 50 to 249 nM
11 |  | CCS(=O)(=O)c1ccc(Oc2cc(F)cc(C#N)c2)c2c1[C@H](O)C(F)(F)C2 [Compound 206] | EC50 (786-O-Hif-Luc cells; [2]): 50 to 249 nM
12 |  | COC(=O)c1cc(S(=O)(=O)C(F)(F)F)ccc1Oc1cc(F)cc(Cl)c1 [Compound 121] | IC50 [1, 4]: > 1000 nM
13 | > 1000 nM | CCCOc1ccc(S(=O)(=O)C(F)(F)F)c2c1CCC2O (centres unmarked) [Compound 583] | 
14 | > 1000 nM | COc1ccc(S(=O)(=O)C(F)(F)F)c2c1CCC2O (centres unmarked) [Compound 588] | 
15 | < 50 nM | CS(=O)(=O)c1ccc(Oc2cncc(Cl)c2)c2c1[C@H](O)C(F)(F)[C@@H]2F [Compound 331] | 
16 | > 1000 nM | CC(=O)N1CCCC(Oc2ccc(S(=O)(=O)C(F)(F)F)c3c2CC(F)(F)C3O)C1 (centres unmarked) [Compound 627] | 
17 |  | NC(=O)c1cc(S(=O)(=O)C(F)(F)F)ccc1Oc1cc(F)cc(Cl)c1 [Compound 125] | IC50 [1, 4]: > 1000 nM
18 | > 1000 nM | CC(C)(C)OC(=O)NCc1c(S(=O)(=O)C(F)F)ccc(Oc2cc(F)cc(Cl)c2)c1Br [Compound 83] | 
19 | > 1000 nM | CC(C)Oc1ccc(S(=O)(=O)C(F)(F)F)c2c1CCC2O (centres unmarked) [Compound 592] | 
20 | > 1000 nM | N#Cc1cc(F)cc(Oc2ccc(S(=N)(=O)C(F)(F)F)c3c2CCC3O)c1 (centres unmarked) [Compound 259] | 
21 | > 1000 nM | O=C(O)COc1ccc(S(=O)(=O)C(F)(F)F)c2c1CC(F)(F)C2O (centres unmarked) [Compound 633] | 
22 |  | N#Cc1cc(F)cc(Oc2ccc3c(c2C(F)F)C(=O)C(F)(F)S3(=O)=O)c1 [Compound 385] | IC50 [1, 4]: > 1000 nM
23 | > 1000 nM | O=S(=O)(c1ccc(OC2CNC2)c2c1[C@H](O)C(F)(F)C2)C(F)(F)F [Compound 792] | 
24 | > 1000 nM | O=C1c2c(C(F)(F)F)ccc(OCC(F)F)c2CC1F (centres unmarked) [Compound 694] | 
25 | > 1000 nM | Cc1c(Oc2cc(F)cc(C#N)c2)ccc(S(=O)(=O)C(F)(F)F)c1/C=C/c1nnco1 [Compound 150] | 
26 | > 1000 nM | CNS(=O)(=O)c1ccc(Oc2cc(F)cc(F)c2)c2c1C(O)CC2 (centres unmarked) [Compound 211] | 
27 | > 1000 nM | CS(=O)(=NC#N)c1ccc(Oc2cc(F)cc(C#N)c2)c2c1C(O)CC2 (centres unmarked) [Compound 68] | 

Row | IC50 [1, 5] | Structure (SMILES) | further results
28 | > 1000 nM | Cc1n[nH]c(C)c1-c1ccc(S(=O)(=O)C(F)(F)F)c2c1CC(F)(F)[C@H]2O [Compound 562] | 
29 | > 1000 nM | CN1CCC(Oc2ccc(S(=O)(=O)C(F)(F)F)c3c2CC(F)(F)C3O)C1 (centres unmarked) [Compound 642] | 
30 | > 1000 nM | COC(C)COc1ccc(S(=O)(=O)C(F)(F)F)c2c1CCC2O (centres unmarked) [Compound 625] | 
31 | > 1000 nM | C=CC1(O)c2c(ccc(Oc3cc(F)cc(C#N)c3)c2C#N)S(=O)(=O)C1(F)F (centres unmarked) [Compound 460] | 
32 | > 1000 nM | O=S(=O)(c1ccc(Cn2ccnn2)c2c1[C@H](O)C(F)(F)C2)C(F)(F)F [Compound 536] | 
33 | > 1000 nM | N#Cc1cc(F)cc(Oc2ccc(Br)c3c2C(F)(F)C(F)(F)C3)c1 [Compound 248] | 
34 | > 1000 nM | O=S1(=O)CC(O)c2c1ccc(Oc1cc(F)cc(F)c1)c2Br (centres unmarked) [Compound 418] | 
35 | > 1000 nM | CS(=O)(=O)c1ccc(O[C@H]2C[C@@H](C(N)=O)C2)c2c1[C@H](O)C(F)(F)[C@@H]2F [Compound 763] | 
36 | 50 to 249 nM | O=[N+]([O-])c1c(Oc2cccc(Cl)c2)ccc(C(F)(F)F)c1Cl [Compound 204] | 
37 | > 1000 nM | N#Cc1cc(F)cc(Oc2ccc(S(=O)(=O)C(F)(F)F)c3c2CC(F)C3N)c1 (centres unmarked) [Compound 268] | 
38 | > 1000 nM | CC1(C)CC[C@H](O)[C@H](c2ccc(S(=O)(=O)C(F)(F)F)c3c2CC(F)(F)[C@H]3O)C1 [Compound 548] | 
39 | > 1000 nM | Cc1c(Oc2cc(F)cc(C#N)c2)ccc(S(=O)(=O)C(F)(F)F)c1C#CCO [Compound 142] | 
40 | < 50 nM | N#CN=S(=O)(CF)c1ccc(Oc2cc(F)cc(C#N)c2)c2c1[C@H](O)C(F)(F)C2 (some centres unmarked) [Compound 286] | 
41 | > 1000 nM | O=S(=O)(c1ccc(NCc2ccco2)c2c1[C@H](O)C(F)(F)C2)C(F)F [Compound 529] | 
42 | > 1000 nM | CS(=O)(=NC#N)c1ccc(Oc2cc(F)cc(C#N)c2)c2c1[C@H](O)C(F)(F)[C@H]2F (some centres unmarked) [Compound 318] | 
43 | > 1000 nM | N#Cc1cc(F)cc(Oc2ccc3c(c2C(F)F)C(=N)C(F)S3(=O)=O)c1 (centres unmarked) [Compound 373] | 
44 | > 1000 nM | O/N=C1/c2c(C(F)(F)F)ccc(OCCCF)c2CC1(F)F [Compound 702] | 
45 | > 1000 nM | CNC(=O)C(C)Oc1ccc(S(=O)(=O)C(F)(F)F)c2c1CC(F)(F)C2O (centres unmarked) [Compound 645] | 
46 | > 1000 nM | CS(=N)(=O)c1ccc(Oc2cc(F)cc(Cl)c2)c(C#N)c1Cl (centres unmarked) [Compound 180] | 
47 | > 1000 nM | Nc1ncccc1-c1ccc(S(=O)(=O)C(F)(F)F)c2c1CC(F)(F)[C@H]2O [Compound 539] | 
48 |  | N#Cc1cc(S(=O)(=O)C(F)(F)F)ccc1Oc1cc(F)cc(Cl)c1 [Compound 119] | IC50 [1, 4]: 50 to 249 nM
49 | 50 to 249 nM | N#Cc1cc(F)cc(Oc2ccc3c(c2CF)C(O)C(F)(F)S3(=O)=O)c1 (centres unmarked) [Compound 388] | 
50 | > 1000 nM | CC1(Oc2ccc(S(=O)(=O)C(F)(F)F)c3c2CC(F)(F)[C@H]3O)COC1 [Compound 785] | 
51 | > 1000 nM | Cc1c([S+]([O-])C(F)F)ccc(Oc2cc(F)cc(Cl)c2)c1C#N (centres unmarked) [Compound 37] | 
52 | 50 to 249 nM | CS(=O)(=O)c1ccc(OC[C@H]2CC2(F)F)c2c1[C@H](O)C(F)(F)[C@@H]2F [Compound 769] | 
53 | > 1000 nM | COC1Cc2c(OCC(F)F)ccc(C(F)(F)F)c2C1O (centres unmarked) [Compound 668] | 
54 | > 1000 nM | O=S1(=O)C[C@H](O)c2c1ccc(Oc1cccc(F)c1)c2Br [Compound 419] | 

Row | IC50 [1, 5] | Structure (SMILES) | further results
55 | > 1000 nM | O=S(=O)(c1ccc(-c2ccn[nH]2)c2c1[C@H](O)C(F)(F)C2)C(F)(F)F [Compound 561] | 
56 | > 1000 nM | O=S(=O)(c1ccc(Oc2c(F)cccc2F)c(Br)c1)C(F)(F)F [Compound 176] | 
57 | > 1000 nM | CC(Oc1ccc(S(=O)(=O)C(F)(F)F)c2c1CC(F)(F)C2O)c1ccccc1 (centres unmarked) [Compound 664] | 
58 |  | O=S1(=O)c2ccc(Oc3cncc(Cl)c3)c(C(F)F)c2C(O)C1(F)F (centres unmarked) [Compound 381] | IC50 [1, 4]: 50 to 249 nM
59 | > 1000 nM | CCOc1ccc(S(=O)(=O)C(F)(F)F)c2c1CCC2O (centres unmarked) [Compound 589] | 
60 | > 1000 nM | CS(=O)(=O)c1ccc(Oc2cc(F)cc(C#N)c2)c2c1[C@H](O)CC2(F)F [Compound 288] | 
61 | 50 to 249 nM | C=CCN=S(=O)(c1ccc(Oc2cc(F)cc(C#N)c2)c2c1[C@H](O)C(F)(F)C2)C(F)(F)F (some centres unmarked) [Compound 308] | 
62 | > 1000 nM | CS(=O)(=O)c1ccc(O[C@H]2CC[C@H](C#N)CC2)c2c1[C@H](O)C(F)(F)[C@@H]2F [Compound 757] | 
63 | > 1000 nM | N#Cc1cc(F)cc(Oc2ccc3c(c2Br)C(=O)C(F)(F)S3(=O)=O)c1 [Compound 393] | 
64 | > 1000 nM | O=S(=O)(c1ccc(C2CC2)c2c1C(O)CC2)C(F)(F)F (centres unmarked) [Compound 512] | 
65 | > 1000 nM | OC1c2c(Br)ccc(OCC(F)F)c2CC1(F)F (centres unmarked) [Compound 687] | 
66 | > 1000 nM | O=S(=O)(c1ccc(OC2CCCNC2)c2c1[C@H](O)C(F)(F)C2)C(F)(F)F (some centres unmarked) [Compound 797] | 
67 | > 1000 nM | N#Cc1c(Oc2cc(F)cc(Cl)c2)ccc2c1CCS2(=O)=O [Compound 351] | 
68 | > 1000 nM | COCCNC1c2c(ccc(Oc3cc(F)cc(C#N)c3)c2C(F)F)S(=O)(=O)C1(F)F (centres unmarked) [Compound 382] | 
69 | > 1000 nM | Cn1nccc1-c1ccc(S(=O)(=O)C(F)(F)F)c2c1CC(F)(F)[C@H]2O [Compound 559] | 
70 | > 1000 nM | CCc1ccc(S(=O)(=O)C(F)(F)F)c2c1CCC2O (centres unmarked) [Compound 514] | 
71 | > 1000 nM | CC1(C)C[C@@H](O)C[C@H](c2ccc(S(=O)(=O)C(F)(F)F)c3c2CC(F)(F)[C@H]3O)C1 [Compound 552] | 
72 | > 1000 nM | CCOc1ccc2c(c1C(F)F)[C@@H](O)C(F)(F)S2(=O)=O [Compound 438] | 
73 | > 1000 nM | N#Cc1cc(F)cc(Oc2ccc3c(c2C#CCF)C(O)C(F)(F)S3(=O)=O)c1 (centres unmarked) [Compound 410] | 
74 | > 1000 nM | O=S(=O)(c1ccc(Oc2ccc(F)cc2F)c(Br)c1)C(F)(F)F [Compound 175] | 
75 | > 1000 nM | N#Cc1cc(F)cc(Oc2ccc3c(c2C#N)C(O)(C(F)(F)F)CS3(=O)=O)c1 (centres unmarked) [Compound 450] | 
76 |  | CS(=O)(=O)c1ccc(Oc2cc(F)cc(C#N)c2)c2c1C(O)C(F)(F)CC2 (centres unmarked) [Compound 181] | IC50 [1, 4]: > 1000 nM
77 | 50 to 249 nM | N=S1(=O)c2ccc(Oc3cc(F)cc(F)c3)c(C(F)F)c2C(O)C1(F)F (centres unmarked) [Compound 399] | 
78 | < 50 nM | CS(=O)(=O)c1ccc(Oc2cncc(F)c2)c2c1[C@H](O)C(F)(F)[C@@H]2F [Compound 329] | 
79 | > 1000 nM | C[C@]1(F)Cc2c(Oc3cc(F)cc(C#N)c3)ccc(S(C)(=O)=O)c2[C@@H]1O [Compound 298] | 
80 | 50 to 249 nM | N#Cc1c(Oc2cc(F)cc(Cl)c2)ccc2c1C(O)CS2(=O)=O (centres unmarked) [Compound 353] | 
